# Assays:
# [1] = test system: recurrent small cell lung cancer (SCLC); test: Clinical trial of nivolumab alone or with ipilimumab in SCLC, exploratory TMB analysis; format: in vivo, human
# From the text: Subjects were selects who had previously been diagnosed with SCLC, and who had previously received at least one prior platinum-containing regimen (FIG. 23).
# The primary objective was to measure the objective response rate (ORR) by per RECIST v1.1. Secondary objectives included monitoring safety, overall survival (OS), progression free survival (PFS), and duration of response (DOR). Prespecified exploratory objectives included biomarker analysis and health status using the EQ-5D instrument.
# TMB was determined by whole exome sequencing, using an Illumina HiSeq 2500 using 2×100-bp paired-end reads, and calculated as the total number of nonsynonymous missense mutations in the tumor. For exploratory analyses, patients were divided into 3 subgroups based on TMB tertile.
# [2] = Phase 3 study of first-line nivolumab versus platinum-based chemotherapy: safety (adverse events)
# Description: Maintenance pemetrexed was allowed in patients with nonsquamous NSCLC who had stable disease or response after cycle 4. […] Concomitant systemic corticosteroid treatment (<3-week courses) was allowed for non-autoimmune conditions, including but not limited to treatment-related adverse events (AEs) with a potential immunologic cause.
# Tumor response was assessed every 6 weeks until week 48 and every 12 weeks thereafter. Safety assessments included the recording of AEs, graded according to the National Cancer Institute Common Terminology Criteria for Adverse Events, version 4.0.
# [3] = test system: stage IV or recurrent NSCLC; test: Multi-part phase 3 study of first-line nivolumab plus ipilimumab versus chemotherapy: efficacy; format: in vivo, human
# From the text: Patients had chemotherapy-naive, stage IV or recurrent NSCLC.
# Adult patients with PD-L1-histologically confirmed squamous or nonsquamous stage IV/recurrent NSCLC and Eastern Cooperative Oncology Group (ECOG) performance status (Oken M. M., et al. Am J Clin Oncol 5:649-55 (1982)) of 0 or 1 who had received no prior systemic anticancer therapy as primary therapy for advanced or metastatic disease were eligible for the study. All patients underwent imaging to screen for brain metastases. Patients with known EGFR mutations or ALK translocations sensitive to targeted therapy, an autoimmune disease, or untreated central nervous system metastases were excluded.
# All treatments continued until disease progression, unacceptable toxicity, or completion per protocol (up to 2 years for immunotherapy). Crossover between treatment arms within the study was not permitted.
# Part 1 of this study had two co-primary endpoints.
# Hazard ratios of PFS with associated two-sided confidence intervals were estimated using an unstratified Cox proportional hazard model, with treatment group as a single covariate. A multivariate analysis was prespecified in patients with TMB≥10 mutations/Mb to assess the influence of known prognostic baseline factors on PFS. […] Survival curves were estimated using Kaplan-Meier methodology.
# PD-1 = target: T1, PD-1 (Homo sapiens, UniProt Q15116); conditions: across all doses, 0.3 mg/kg to 10 mg/kg; cited from earlier work
# T1 construct: PD-1 occupancy appears to be dose-independent in this dose range
# NSCLC = conditions: cited from earlier work
# [4] = monotherapy, every two weeks; cited from earlier work
# [5] = test system: metastatic or surgically unresectable urothelial carcinoma (UC); test: Single-arm phase II study of nivolumab (CheckMate 275), TMB analysis; format: in vivo, human
# Description: Tumor DNA from pretreatment archival tumor tissue and matched whole blood samples was profiled by whole exome sequencing. TMB was defined as the total number of missense somatic mutations per tumor, and was evaluated as a continuous variable and by tertiles (missense count: high 167, medium 85-166, low <85). Cox models were used to explore the association between TMB and progression-free survival (PFS) and overall survival (OS); and logistic regression for objective response rate (ORR). Tumor PD-ligand 1 (PD-L1) expression was assessed by Dako PD-L1 immunohistochemistry 28-8 assay and was categorized as <1%.
# [6] = 10 patients with ≥5% PD-L1 expression, monotherapy cohort
# T1 sequence (Q15116 25-288): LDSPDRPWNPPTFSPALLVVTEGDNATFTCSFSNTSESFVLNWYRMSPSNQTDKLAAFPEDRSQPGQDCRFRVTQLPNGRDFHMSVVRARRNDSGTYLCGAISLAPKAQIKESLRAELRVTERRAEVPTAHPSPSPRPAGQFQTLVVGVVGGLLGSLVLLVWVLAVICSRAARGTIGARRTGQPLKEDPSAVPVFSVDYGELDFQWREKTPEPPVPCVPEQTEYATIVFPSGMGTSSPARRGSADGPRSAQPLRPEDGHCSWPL
substance,measurement,setting,value
Nivolumab,ORR,[1]; ITT patients,11.4%
same,ORR,[1]; TMB-evaluable patients,11.3%
same,ORR,[1]; high TMB,about 21.3%
same,OS at 1 year,[1]; high TMB,35.2%
same,PFS at 1 year,[1]; high TMB,21.2%
same,average PFS,[1]; high TMB,about 1.4%
same,median OS,[1]; high TMB,about 5.4%
same,patients with overall survival over 2 years,[1]; initial results of the SCLC trial,14%
same,ORR,[1]; low TMB,about 4.8%
same,OS at 1 year,[1]; low TMB,22.1%
same,average PFS,[1]; low TMB,about 1.3%
same,median OS,[1]; low TMB,about 3.1%
same,ORR,[1]; medium TMB,about 6.8%
same,OS at 1 year,[1]; medium TMB,about 26.0%
same,PFS at 1 year,[1]; medium TMB,3.15%
same,average PFS,[1]; medium TMB,about 1.3%
same,median OS,[1]; medium TMB,about 3.9%
same,Treatment-related adverse events: Any event,[2]; Grade 3-4,47 (17.6) n (%)
same,Not continuing in the treatment period: Study drug toxicity,[2]; in vivo,27 (10.1) n (%)
same,Treatment-related AEs leading to discontinuation of study drug,[2]; in vivo,9.7%
same,Treatment-related adverse events leading to discontinuation: Adrenal insufficiency,[2]; in vivo,1 (0.4) n (%)
same,Treatment-related adverse events leading to discontinuation: Alanine aminotransferase increased,[2]; in vivo,5 (1.9) n (%)
same,Treatment-related adverse events leading to discontinuation: Aphasia,[2]; in vivo,1 (0.4) n (%)
same,Treatment-related adverse events leading to discontinuation: Aspartate aminotransferase increased,[2]; in vivo,5 (1.9) n (%)
same,Treatment-related adverse events leading to discontinuation: Cholestasis,[2]; in vivo,1 (0.4) n (%)
same,Treatment-related adverse events leading to discontinuation: Colitis,[2]; in vivo,2 (0.7) n (%)
same,Treatment-related adverse events leading to discontinuation: Confused state,[2]; in vivo,1 (0.4) n (%)
same,Treatment-related adverse events leading to discontinuation: Hypersensitivity,[2]; in vivo,1 (0.4) n (%)
same,Treatment-related adverse events leading to discontinuation: Interstitial lung disease,[2]; in vivo,1 (0.4) n (%)
same,Treatment-related adverse events leading to discontinuation: Multiple organ dysfunction,[2]; in vivo,1 (0.4) n (%)
same,Treatment-related adverse events leading to discontinuation: Nausea,[2]; in vivo,1 (0.4) n (%)
same,Treatment-related adverse events leading to discontinuation: Pericardial effusion malignant,[2]; in vivo,1 (0.4) n (%)
same,Treatment-related adverse events leading to discontinuation: Pneumonitis,[2]; in vivo,3 (1.1) n (%)
same,Treatment-related adverse events leading to discontinuation: Rash,[2]; in vivo,1 (0.4) n (%)
same,Treatment-related adverse events leading to discontinuation: Rash maculopapular,[2]; in vivo,1 (0.4) n (%)
same,Treatment-related adverse events leading to discontinuation: Rash papular,[2]; in vivo,1 (0.4) n (%)
same,Treatment-related adverse events leading to discontinuation: Stevens-Johnson syndrome,[2]; in vivo,1 (0.4) n (%)
same,Treatment-related adverse events leading to discontinuation: Transaminases increased,[2]; in vivo,1 (0.4) n (%)
same,Treatment-related adverse events: Any event,[2]; in vivo,190 (71.2) n (%)
same,Treatment-related adverse events: Leukopenia,[2]; in vivo,0 n (%)
same,Treatment-related adverse events: Neutropenia,[2]; in vivo,0 n (%)
same,Treatment-related adverse events: Neutrophil count decreased,[2]; in vivo,1 (0.4) n (%)
same,Treatment-related serious adverse events: Anemia,[2]; in vivo,0 n (%)
same,Treatment-related serious adverse events: Aspartate aminotransferase increased,[2]; in vivo,6 (2.2) n (%)
same,Treatment-related serious adverse events: Febrile neutropenia,[2]; in vivo,0 n (%)
same,Treatment-related serious adverse events: Thrombocytopenia,[2]; in vivo,0 n (%)
same,median PFS,[3]; TMB≥10 mutations/Mb and ≥1% PD-L1 expression,4.2 months
same,median PFS,[3]; TMB≥13 mutations/Mb and ≥1% PD-L1 expression,4.2 months
same,mean PD-1 occupancy rate,PD-1,85%
same,mean plateau PD-1 occupancy,PD-1,72%
same,PFS rate at 24 weeks,NSCLC; [6],70%
same,median PFS,NSCLC; [6],10.6 months
same,objective response rate (ORR),NSCLC; [6],50%
same,ORR,NSCLC; patients with ≥1% PD-L1 expression,28%
same,"maximum tolerated dose (MTD), not reached up to",[4],> 10 mg/kg
same,"OS, median",[5]; All Pts,8.57 months
same,"PFS, median",[5]; All Pts,2.00 month
same,ORR,[5]; All Pts (N 270),20.0%
same,ORR,"[5]; All Pts, PD-L1 1%",25.0%
same,"OS, median","[5]; All Pts, PD-L1 1%",11.63 months
same,"PFS, median","[5]; All Pts, PD-L1 1%",3.53 month
same,ORR,"[5]; All Pts, PD-L1 <1%",15.8%
same,"OS, median","[5]; All Pts, PD-L1 <1%",5.95 months
same,"PFS, median","[5]; All Pts, PD-L1 <1%",1.87 month
same,ORR,[5]; TMB High,31.9%
same,"OS, median",[5]; TMB High,11.63 months
same,"PFS, median",[5]; TMB High,3.02 month
same,ORR,"[5]; TMB High, PD-L1 1%",33.3%
same,"OS, median","[5]; TMB High, PD-L1 1%",10.60 months
